Data on 1 compound can be found in patent publication US7037936B2, “Compounds useful for the treatment of cancer, compositions thereof and methods therewith” (Signal Pharmaceuticals, LLC., priority 2002, dated 2006).

Type in all cases: cell-based
One test has as its system U266 (multiple myeloma). The experiment in a line: Induction of cell (programmed) death in U266 cells. Particulars: U266 (multiple myeloma) cell line.
Test [1] concerns NCIH1703 (non-small cell lung adenocarcinoma). Put plainly: Induction of cell (programmed) death in NCIH1703 cells. Particulars: NCIH1703 (non-small cell lung adenocarcinoma) cell line.
In test [2] the test system is MDA-MB-231 (breast cancer). Put plainly: Induction of cell (programmed) death in MDA-MB-231 cells. Particulars: MDA-MB-231 (breast cancer) cell line.
Test [3] has as its system MDA-435 human breast cancer cells. The experiment in a line: In vitro cell cycle assay (G1 arrest), propidium iodide DNA content by flow cytometry. Particulars: MDA-435 cells synchronized by serum deprivation for 24 hours, released with 10% serum; vehicle 28%. The protocol:
Tumor cells were synchronized by serum deprivation for 24 hours, then released by adding 10% serum to the cell culture with either the compound of EXAMPLE 1 ((4-{[3-(2,2-Dimethyl-tetrahydro-pyran-4-yl)-4-phenyl-butylamino]-methyl}-phenyl)-dimethyl-amine) (obtained from ChemBridge Corporation; single peak via HPLC: 20–100% gradient: acetonitrile/water/1% trifluoroacetic acid) or vehicle (dimethylsofloxide). Cells were harvested and stained in 0.04% digitonin working solution with […] propidium iodide. DNA content was analyzed by Flow Cytometry (Coulter). The population of cells in each phase was determined using Expo 32-ADC Software for Coulter EPICS® XL™ Cytometers, version 1.1 B (2001).
In general terms: Flow cytometry measures light scatter and fluorescence of single cells or particles in a stream.

The test system of the next test is DU145 (prostate cancer). The experiment in a line: Induction of cell (programmed) death in DU145 cells. Particulars: DU145 (prostate cancer) cell line.
The subject of the next test is ANB6 (multiple myeloma). The experiment in a line: Induction of cell (programmed) death in ANB6 cells. Particulars: ANB6 (multiple myeloma) cell line.
The subject of test [4] is MDA-435 human breast cancer cells. The experiment in a line: In vitro apoptosis assay, Annexin V-FITC and PI staining by flow cytometry. Particulars: MDA-435 cells. Here is the method:
MDA-435 human breast cancer cells were treated with either vehicle or varying doses of the compound of EXAMPLE 1. Cells were harvested and stained with Annexin V-FITC and PI by Flow Cytometry using ApoAlert Annexin V-FITC apoptosis kit (Clonetech, BD). The percentage of apoptotic cells were determined using EPICS® XL™ and XL-MCL, System II™ Software, version 1.0 (1996).

Test [5] concerns Hela (cervix adenocarcinoma). Put plainly: Induction of cell (programmed) death in Hela cells. Particulars: Hela (cervix adenocarcinoma) cell line.
A further test relates to HL-60 (leukemia). Put plainly: Induction of cell (programmed) death in HL-60 cells. Particulars: HL-60 (leukemia) cell line.
In the next test the test system is A357 (lung cancer). The experiment in a line: Induction of cell (programmed) death in A357 cells. Particulars: A357 (lung cancer) cell line.
A further test concerns MCF-7 (breast cancer). The experiment in a line: Induction of cell (programmed) death in MCF-7 cells. Particulars: MCF-7 (breast cancer) cell line.
For test [6], the system named is MDA-MB-435 (breast cancer). The experiment in a line: Induction of cell (programmed) death in MDA-MB-435 cells. Particulars: MDA-MB-435 (breast cancer) cell line.
The subject of a further test is DF15 (multiple myeloma). The experiment in a line: Induction of cell (programmed) death in DF15 cells. Particulars: DF15 (multiple myeloma) cell line.
The next test has as its system A172 (malignant glioma). Put plainly: Induction of cell (programmed) death in A172 cells. Particulars: A172 (malignant glioma) cell line.
The next test relates to MM1s (multiple myeloma). The experiment in a line: Induction of cell (programmed) death in MM1s cells. Particulars: MM1s (multiple myeloma) cell line.
The next test has as its system H929 (multiple myeloma). Put plainly: Induction of cell (programmed) death in H929 cells. Particulars: H929 (multiple myeloma) cell line.

SMILES strings stand for the structures. Structures can show the parent of a compound that is named as a salt.

Turning to `CN(C)c1ccc(CNCCC(Cc2ccccc2)C2CCOC(C)(C)C2)cc1` (centres unmarked) [EXAMPLE 1, (4-({[3-(2′,2′-dimethyltetrahydropyran-4′-yl)-4-phenylbutylamino]-methyl}-phenyl)-dimethylaminedihydrochloride], the “induction of cell (programmed) death” value (in the test with U266 (multiple myeloma); in test [1]; in test [2]; in the test with DU145 (prostate cancer); in the test on ANB6 (multiple myeloma); in test [5]) was “induce cell (programmed) death” each time. Further, the “induction of cell (programmed) death” value (with HL-60 (leukemia); in the test on A357 (lung cancer); in the test with MCF-7 (breast cancer); in test [6]; in the test with DF15 (multiple myeloma); in the test with A172 (malignant glioma)) was “induce cell (programmed) death” throughout. Moreover, the “induction of cell (programmed) death” value with MM1s (multiple myeloma) and in the test on H929 (multiple myeloma) was “induce cell (programmed) death” each time. Further, the “G0/G1 to S phase transition blockage” value in test [3] is reported as 38%. Also, the “cell population with increased intensity of Annexin V-FITC staining” value in test [4] (varying doses, dose-dependent increase) is on record as “up to 30%”. The “PI staining of treated cells” value in test [4] (PI stains cells in a late stage of apoptosis) is recorded as “increase in PI staining”.
